{
  "source": "patent US20240197761A1",
  "about": "“FUCOSYLATION AND IMMUNE MODULATION IN CANCER” (H. LEE MOFFITT CANCER CENTER AND RESEARCH INSTITUTE, INC., priority 2021, published 2024)",
  "tested_on": "SW1 tumors",
  "experiment": "Control vs. L-fucose ± FTY720 model: tumor growth and flow cytometric profiling of tumors and lymph nodes (Table 1)",
  "type": "in vivo, C3H/HeN mice",
  "protocol": "FIGS. 15A-15E Lymph node egress is necessary for L-fucose-triggered tumor suppression; L-fucose increases intratumoral CD4+T stem and central memory cells. (a) Immune subpopulations markers use to profile by flow cytometry. (b) Volumetric growth curves for SW1 tumors in C3H/HeN mice fed without (Ctl) or with L-fucose (LF) and treated with FTY720 (Ctl mice administered FTY720: (FTY); LF-supplemented mice administered FTY720: (L+F)). FTY720 was administered at 20 μg per mouse every 2 days starting on Day 12, just prior to the initiation of LF (c) Pie charts showing ratios of intratumoral or lymph node-resident CD4+ or CD8+T cell subpopulations, as well as DC subtypes from mice at Day 14, 28, and 42 (each pie chart represents 4-5 mice). Assessment of cytotoxic CD4+ T cell populations (CRTAM+) and cytotoxic CD8+ T cell populations (GrzB+) from tumors at Day 28 (d) and Day 42 (e). The tumor growth curves are means±SEM from ≥7 mice per group. *=p<0.05.\nTumors of SW1 or SM1 melanoma cells from […] or C57BL/6 mice, respectively) were digested using 1× tumor digest buffer (0.5 mg/mL Collagenase I, 0.5 mg/mL Collagenase IV, 0.25 mg/mL Hyalyronidase V, 0.1 mg/mL DNAse I in HBSS (Millipore Sigma (St. Louis, MO)). Tumors were homogenized using the Miltenyi MACs dissociator. Red blood cells were lysed using ACK lysis buffer (Life Technologies, (Grand Island, NY)). Tumor homogenate cells were counted using a standard hemocytometer.\nTotal TILs were gated first to single cells (based on forward scatter height vs width, followed by side scatter height vs. width). Live cells were gated from the Zombie negative population from the population above. TILs were gated based on splenocyte size from a control spleen. Individual immune subpopulations were sub-gated from the total TIL population using the following staining criteria: CD3+ for CD3+ T cells; CD3+/CD4+/CD8− for CD4+T cells; CD3+/CD4−/CD8+ for CD8+ T cells, CD11c+/CD11b+ for DCs; either NK1.1 (for C57/BL6 mice) or DX5 (for C3H/HeJ) for NK cells; CD11b+/GR1+ for MDSC-like cells; and F4/80+ for macrophages. Single-cell suspensions from tumor and spleen tissue were stained with Live/Dead Zombie NIR (Biolegend, (San Diego, CA)) at 1:1,000 in PBS for 20 min. Cell suspensions were spun down and stained with the following with antibodies at 0.5 μg/ml per antibody: APC anti-mouse CD3, Pacific Blue anti-mouse CD4, BV785 anti-mouse CD8, PerCP anti-mouse CD25, FITC anti-mouse F4/80, PeCy7 anti-mouse CD11c, PE anti-mouse NK1.1 or PE anti-mouse DX5, and PerCP-Cy5.5 anti-mouse CD11 b. After staining, the cells were washed and fixed (2% formaldehyde), followed by another wash and flow cytometric analysis. The compensation controls were prepared using 0.5 μg/mL of each antibody with UltraComp eBeads, (ThermoFisher Scientific (Waltham, MA)). All samples were subject to flow cytometric profiling using a LSR Flow Cytometer (BD Biosciences (San Jose, CA)) and analysis as indicated using FlowJo software (BD Biosciences (San Jose, CA)).\nSW1 or SM1 mouse melanoma cells were injected into syngeneic C3H/HeN (or NSG) female or C57BL/6 male mice, respectively. Cells were injected as follows: parental SW1 cells for FIG. 13A; parental SM1 cells for FIG. 13E; SW1 cells stably expressing either empty vector (EV) or mouse fucose kinase (mFuk) for FIG. 1L; and parental SW1 cells for FIG. 13M. FTY720 was administered at 20 μg every 2 days starting on Day 12, just prior to the initiation of LF, until endpoint.",
  "data": [
    {"compound": "CCCCCCCCc1ccc(CCC(N)(CO)CO)cc1", "note": "[FTY720, reference compound]", "values": [
      {"measurement": "CD4 central memory, average # of cells", "setting": "Day 28, lymph nodes", "value": "1362.38 per 10^6 cells of total tumor"},
      {"measurement": "CD4 effector memory, average # of cells", "setting": "Day 28, lymph nodes", "value": "372.53 per 10^6 cells of total tumor"},
      {"measurement": "CD4 naïve, average # of cells", "setting": "Day 28, lymph nodes", "value": "20717.91 per 10^6 cells of total tumor"},
      {"measurement": "CD4 stem central memory, average # of cells", "setting": "Day 28, lymph nodes", "value": "24893.27 per 10^6 cells of total tumor"},
      {"measurement": "CD8 central memory, average # of cells", "setting": "Day 28, lymph nodes", "value": "85.45 per 10^6 cells of total tumor"},
      {"measurement": "CD8 effector memory, average # of cells", "setting": "Day 28, lymph nodes", "value": "421.08 per 10^6 cells of total tumor"},
      {"measurement": "CD8 naïve, average # of cells", "setting": "Day 28, lymph nodes", "value": "6153.14 per 10^6 cells of total tumor"},
      {"measurement": "CD8 stem central memory, average # of cells", "setting": "Day 28, lymph nodes", "value": "311.59 per 10^6 cells of total tumor"},
      {"measurement": "cDC1, average # of cells", "setting": "Day 28, lymph nodes", "value": "147.79 per 10^6 cells of total tumor"},
      {"measurement": "cDC2, average # of cells", "setting": "Day 28, lymph nodes", "value": "448.71 per 10^6 cells of total tumor"},
      {"measurement": "moDC, average # of cells", "setting": "Day 28, lymph nodes", "value": "41.74 per 10^6 cells of total tumor"},
      {"measurement": "CD4 central memory, average # of cells", "setting": "Day 28, tumors", "value": "11.56 per 10^6 cells of total tumor"},
      {"measurement": "CD4 effector memory, average # of cells", "setting": "Day 28, tumors", "value": "336.07 per 10^6 cells of total tumor"},
      {"measurement": "CD4 naïve, average # of cells", "setting": "Day 28, tumors", "value": "60.03 per 10^6 cells of total tumor"},
      {"measurement": "CD4 stem central memory, average # of cells", "setting": "Day 28, tumors", "value": "0.87 per 10^6 cells of total tumor"},
      {"measurement": "CD8 central memory, average # of cells", "setting": "Day 28, tumors", "value": "1.22 per 10^6 cells of total tumor"},
      {"measurement": "CD8 effector memory, average # of cells", "setting": "Day 28, tumors", "value": "54.02 per 10^6 cells of total tumor"},
      {"measurement": "CD8 naïve, average # of cells", "setting": "Day 28, tumors", "value": "24.54 per 10^6 cells of total tumor"},
      {"measurement": "CD8 stem central memory, average # of cells", "setting": "Day 28, tumors", "value": "0.00 per 10^6 cells of total tumor"},
      {"measurement": "cDC1, average # of cells", "setting": "Day 28, tumors", "value": "463.94 per 10^6 cells of total tumor"},
      {"measurement": "cDC2, average # of cells", "setting": "Day 28, tumors", "value": "8181.08 per 10^6 cells of total tumor"},
      {"measurement": "moDC, average # of cells", "setting": "Day 28, tumors", "value": "7526.28 per 10^6 cells of total tumor"},
      {"measurement": "CD4 central memory, average # of cells", "setting": "Day 42, lymph nodes", "value": "949.35 per 10^6 cells of total tumor"},
      {"measurement": "CD4 effector memory, average # of cells", "setting": "Day 42, lymph nodes", "value": "3499.07 per 10^6 cells of total tumor"},
      {"measurement": "CD4 naïve, average # of cells", "setting": "Day 42, lymph nodes", "value": "65491.17 per 10^6 cells of total tumor"},
      {"measurement": "CD4 stem central memory, average # of cells", "setting": "Day 42, lymph nodes", "value": "742.12 per 10^6 cells of total tumor"},
      {"measurement": "CD8 central memory, average # of cells", "setting": "Day 42, lymph nodes", "value": "949.35 per 10^6 cells of total tumor"},
      {"measurement": "CD8 effector memory, average # of cells", "setting": "Day 42, lymph nodes", "value": "3499.07 per 10^6 cells of total tumor"},
      {"measurement": "CD8 naïve, average # of cells", "setting": "Day 42, lymph nodes", "value": "65491.17 per 10^6 cells of total tumor"},
      {"measurement": "CD8 stem central memory, average # of cells", "setting": "Day 42, lymph nodes", "value": "742.12 per 10^6 cells of total tumor"},
      {"measurement": "cDC1, average # of cells", "setting": "Day 42, lymph nodes", "value": "1731.49 per 10^6 cells of total tumor"},
      {"measurement": "cDC2, average # of cells", "setting": "Day 42, lymph nodes", "value": "3881.72 per 10^6 cells of total tumor"},
      {"measurement": "moDC, average # of cells", "setting": "Day 42, lymph nodes", "value": "1219.26 per 10^6 cells of total tumor"},
      {"measurement": "CD4 central memory, average # of cells", "setting": "Day 42, tumors", "value": "32.54 per 10^6 cells of total tumor"},
      {"measurement": "CD4 effector memory, average # of cells", "setting": "Day 42, tumors", "value": "160.89 per 10^6 cells of total tumor"},
      {"measurement": "CD4 naïve, average # of cells", "setting": "Day 42, tumors", "value": "44.22 per 10^6 cells of total tumor"},
      {"measurement": "CD4 stem central memory, average # of cells", "setting": "Day 42, tumors", "value": "18.52 per 10^6 cells of total tumor"},
      {"measurement": "CD8 central memory, average # of cells", "setting": "Day 42, tumors", "value": "5.73 per 10^6 cells of total tumor"},
      {"measurement": "CD8 effector memory, average # of cells", "setting": "Day 42, tumors", "value": "220.02 per 10^6 cells of total tumor"},
      {"measurement": "CD8 naïve, average # of cells", "setting": "Day 42, tumors", "value": "19.42 per 10^6 cells of total tumor"},
      {"measurement": "CD8 stem central memory, average # of cells", "setting": "Day 42, tumors", "value": "0.00 per 10^6 cells of total tumor"},
      {"measurement": "cDC1, average # of cells", "setting": "Day 42, tumors", "value": "607.65 per 10^6 cells of total tumor"},
      {"measurement": "cDC2, average # of cells", "setting": "Day 42, tumors", "value": "279.84 per 10^6 cells of total tumor"},
      {"measurement": "moDC, average # of cells", "setting": "Day 42, tumors", "value": "197.56 per 10^6 cells of total tumor"},
      {"measurement": "intratumoral CD4+T central and effector memory subpopulations", "setting": "FIG. 15c", "value": "abrogated"}
    ]}
  ]
}
